pKd: −log10 of the molar value. Where two headings read alike, the source gives them in different places.
Tests used:
MDA-MB-231 cells [1] = assay: Colony formation assay with and without TRAIL; assay type: cell-based; conditions: MDA-MB-231, in combination with TRAIL
Description: The ability of cells to form viable colonies was analyzed by adding various concentrations of the compound in the presence and absence of 0.4 ng/ml of TRAIL. Briefly, cells are seeded at 100 cells per well in a 12 well format in 2 ml of growth medium. The medium is removed after twenty-four hours and replaced with Smac mimetics at various concentrations in growth medium with 1% DMSO. After 72 hours on test, the concentrations are removed and replaced with 2 ml. of growth medium. The plates are returned to the incubator for 7-10 days at which time the colonies have multiplied to at least 10 cells per colony which can be counted by eye. The plates are stained with a 0.01% crystal violet solution (wt:vol. in H2O) for thirty minutes. The plates are washed with tap water to remove any residual crystal violet, dried and the colonies are counted. Inhibition data were analyzed using the sigmoidal dose-response (variable slope) equation in GraphPad Prism (GraphPad Software, San Diego, Calif.). The 50% inhibitory concentration (EC50) was the drug concentration that decreased the […] by 50% relative to control samples without drug.

[2] = Half life after single intravenous dose in rat; conditions: in vivo, single IV dose 1 mg/kg, FIG. 2, read-out: terminal elimination half life (converted)
Description: The IV dose for each Smac mimetic was 1 mg/kg.

T98G cells = assay: Cytotoxicity synergy study with topoisomerase inhibitors; assay type: cell-based
Description: The highest amount of synergy is 50-60% more cell death than would be expected by adding together the cytotoxicity of each compound alone. […] The total synergistic volume was 457, with the greatest synergism being about 30%-40% more cell death than would be expected by adding together the individual Smac and topotecan cytotoxicities, between Entry 1 and a topoismerase inhibitor, such as topotecan.
To further assess potential drug-drug interactions a matrix of the permutations of two-fold serial dilutions of each drug and a Snac mimetic were tested as well as the activity of each compound alone using a program called MacSynergy II (Prichard, M. N., K. R. Aseltine, and C. Shipman, Jr. 1993. MacSynergy II. User's manual. Univ. of Michigan, Ann Arbor). The synergy with paclitaxel and the Smac peptidomimetic Entry 122 in OVCAR3 cells was tested. The highest amount of synergy detected is 10-20% which indicates greater cell death than would be expected by adding together the cytotoxicity of either compound alone.

MDA-MB-231 cells [3] = assay: Cell proliferation (MTT assay) with and without TRAIL; assay type: cell-based; conditions: MDA-MB-231, MTT, FIG. 4
XIAP-BIR3 = biological target: T1, XIAP-BIR3 (Homo sapiens, UniProt P98170); assay: XIAP BIR-3 fluorescence polarization binding assay; conditions: read-out: KD Range
T1 construct: 40 nM of XIAP-BIR3 for 15 min at RT
Description: Following incubation, the polarization values (mP) were measured on a Victor^2V using a 485 nm excitation filter and a 520 nm emission filter. IC50 values were determined from the plot using nonlinear least-squares analysis using GraphPad Prism.

MRC-5 cells = assay: 72 hour MTT assay, normal cell control MRC-5; assay type: cell-based; conditions: MRC-5 normal diploid cell line, FIG. 3
Description: (§1) A 72 hour MTT assay, as previously described by Hansen, M. B., Nielsen, S. E., and Berg, K. ((1989) J. Immunol. Methods 119, 203-210) and incorporated herein by reference in its entirety, was used to differentiate between a specific versus non-specific effect on cell killing by Smac mimetics. Briefly, SK-OV-3 cells were seeded in 96-well plates in McCoy's medium containing 10% fetal bovine serum […] (20,000 per well) and incubated overnight at 37 C. […] 50 microliters of 5 mg/mL MTT reagent was then added to each well and the plates were incubated at 37° C. for 3 hours. At the end of the incubation period, 50 microliters of DMSO was added to each well to dissolve cells and the optical density (OD) of the wells was measured using a microplate reader (Victor^2 1420, Wallac, Finland) at 535 nm. Cell survival (CS) was calculated by the following equation CS=(OD treated well/mean OD control wells)×100%
Smac mimetic Entry 116 was tested using an ovarian cancer cell line, SK-OV-3, and MRC-5 cells were used as a normal cell control.

SK-OV-3 cells = assay: 72 hour MTT cell survival assay, SK-OV-3; assay type: cell-based; conditions: SK-OV-3 ovarian cancer cell line, FIG. 3
Description: as §1
The EC50, defined as the drug concentration that results in 50% CS, was derived by calculating the point where the dose-response curve crosses the 50% CS point using GraphPad Prism.

[4] = with topotecan and camptothecin

T1 sequence (P98170 241-356 limits assumed): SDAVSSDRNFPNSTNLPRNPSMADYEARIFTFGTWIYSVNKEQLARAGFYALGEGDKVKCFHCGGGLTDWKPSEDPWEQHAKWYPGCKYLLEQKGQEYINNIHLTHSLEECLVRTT

| SMILES | increase in the cell killing as detected by loss in colony formation (MDA-MB-231 cells [1]) | half-life [2] | total synergistic volume (T98G cells; with a topoisomerase inhibitor such as topotecan) | greatest synergism, more cell death than expected by adding the individual cytotoxicities (T98G cells; with topotecan) | highest amount of synergy, more cell death than expected by adding the cytotoxicity of each compound alone (T98G cells; [4]) | synergy with topoisomerase inhibitors (T98G cells; [4]) | increase in the antiproliferative effect in combination with TRAIL (MDA-MB-231 cells [3]; in combination with TRAIL) | antiproliferative effect, Smac mimetic alone (MDA-MB-231 cells [3]; without TRAIL) | pKd (XIAP-BIR3; 5 nM AbuRPF-K(5-Fam)-NH2, 40 nM XIAP-BIR3, 15 min RT, pH 7.5) | effect on normal (non-tumorigenic) cells (MRC-5 cells) | pKd (XIAP-BIR3; Example 7 series) | more effective at killing tumor cells than negative controls (SK-OV-3 cells) |
| --- | --- | --- | --- | --- | --- | --- | --- | --- | --- | --- | --- | --- |
| CC(N)C(=O)NC(C(=O)N1CCCC1Cc1c(-c2ccc(-c3oc4ccccc4c3CC3CCCN3C(=O)C(NC(=O)C(C)N)C(C)C)cc2)oc2ccccc12)C(C)C (single isomer, unassigned) [Entry 1] | 100 fold | ~6 h | 457 | 30%-40% | 50-60% | act synergistically | 1000 fold | resistant | > 7.00 |  |  |  |
| CN[C@@H](C)C(=O)N[C@H](C(=O)N1C[C@@H](O)C[C@H]1Cc1c(-c2[nH]c3cc(F)ccc3c2C[C@@H]2C[C@H](O)CN2C(=O)[C@@H](NC(=O)[C@H](C)NC)[C@@H](C)OC)[nH]c2cc(F)ccc12)[C@@H](C)OC [Entry 116] |  |  |  |  |  |  |  |  |  | unaffected | > 7.00 | 100,000 × |

— US9187490B2, “Dimeric IAP inhibitors” (TetraLogic Pharmaceuticals Corporation, priority 2005, dated 2015)
